Blank lines part the entries; values can stand above or below the compound they belong to.
Tests used:
[1] = target: T1, Tyrosine-protein kinase receptor TYRO3 (Homo sapiens) (UniProt Q06418); assay: Selectivity interaction (Kinase panel (Invitrogen)) EUB0000639a TYRO3; settings: at 200 nM
T1 sequence (whole entry): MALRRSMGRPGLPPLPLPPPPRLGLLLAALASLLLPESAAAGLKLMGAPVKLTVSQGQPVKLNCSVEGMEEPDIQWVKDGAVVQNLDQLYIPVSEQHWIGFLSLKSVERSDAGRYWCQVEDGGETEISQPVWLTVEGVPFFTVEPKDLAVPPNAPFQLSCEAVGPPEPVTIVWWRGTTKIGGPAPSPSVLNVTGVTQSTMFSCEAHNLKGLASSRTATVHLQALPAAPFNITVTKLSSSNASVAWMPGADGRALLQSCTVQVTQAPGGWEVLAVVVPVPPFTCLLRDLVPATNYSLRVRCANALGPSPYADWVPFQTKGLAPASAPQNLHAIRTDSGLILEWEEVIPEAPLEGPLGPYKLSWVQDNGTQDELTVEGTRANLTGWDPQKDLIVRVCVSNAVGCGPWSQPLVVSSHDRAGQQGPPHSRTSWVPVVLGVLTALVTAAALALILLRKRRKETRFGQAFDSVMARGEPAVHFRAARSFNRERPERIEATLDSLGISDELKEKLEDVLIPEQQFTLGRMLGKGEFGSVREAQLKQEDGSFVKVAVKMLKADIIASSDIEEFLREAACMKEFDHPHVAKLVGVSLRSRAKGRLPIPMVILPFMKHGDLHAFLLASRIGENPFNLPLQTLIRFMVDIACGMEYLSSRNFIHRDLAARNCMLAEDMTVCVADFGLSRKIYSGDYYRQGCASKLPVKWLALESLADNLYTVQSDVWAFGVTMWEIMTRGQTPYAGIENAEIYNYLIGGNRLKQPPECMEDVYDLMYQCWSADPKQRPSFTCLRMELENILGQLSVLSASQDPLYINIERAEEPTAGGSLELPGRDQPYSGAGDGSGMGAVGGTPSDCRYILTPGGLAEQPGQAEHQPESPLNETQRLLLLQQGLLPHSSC

[2] = target: T2, Dual specificity mitogen-activated protein kinase kinase 3 (Homo sapiens) (UniProt P46734); assay: Selectivity interaction (ActivX KiNativ screen (kinase selectivity in THP-1 cell lysates)) EUB0000639a MAP2K3; type: subcellular; settings: lysate
T2 sequence (whole entry): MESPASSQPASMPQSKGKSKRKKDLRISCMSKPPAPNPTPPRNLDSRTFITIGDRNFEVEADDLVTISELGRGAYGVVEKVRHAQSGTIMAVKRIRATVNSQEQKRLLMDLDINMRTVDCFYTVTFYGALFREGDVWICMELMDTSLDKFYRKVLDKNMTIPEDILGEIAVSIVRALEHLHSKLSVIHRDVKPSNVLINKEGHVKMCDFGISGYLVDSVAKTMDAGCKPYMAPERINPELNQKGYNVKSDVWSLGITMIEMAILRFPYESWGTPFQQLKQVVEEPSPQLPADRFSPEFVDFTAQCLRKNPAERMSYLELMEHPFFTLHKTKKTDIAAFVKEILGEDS

[3] = target: Mitogen-activated protein kinase kinase kinase 1 (Homo sapiens, UniProt Q13233); assay: Selectivity interaction (KinomeScan (DiscoverX)) EUB0000229b MAP3K1; settings: at 10 µM
Mitogen-activated protein kinase kinase kinase 1, sequence (Q13233 whole entry): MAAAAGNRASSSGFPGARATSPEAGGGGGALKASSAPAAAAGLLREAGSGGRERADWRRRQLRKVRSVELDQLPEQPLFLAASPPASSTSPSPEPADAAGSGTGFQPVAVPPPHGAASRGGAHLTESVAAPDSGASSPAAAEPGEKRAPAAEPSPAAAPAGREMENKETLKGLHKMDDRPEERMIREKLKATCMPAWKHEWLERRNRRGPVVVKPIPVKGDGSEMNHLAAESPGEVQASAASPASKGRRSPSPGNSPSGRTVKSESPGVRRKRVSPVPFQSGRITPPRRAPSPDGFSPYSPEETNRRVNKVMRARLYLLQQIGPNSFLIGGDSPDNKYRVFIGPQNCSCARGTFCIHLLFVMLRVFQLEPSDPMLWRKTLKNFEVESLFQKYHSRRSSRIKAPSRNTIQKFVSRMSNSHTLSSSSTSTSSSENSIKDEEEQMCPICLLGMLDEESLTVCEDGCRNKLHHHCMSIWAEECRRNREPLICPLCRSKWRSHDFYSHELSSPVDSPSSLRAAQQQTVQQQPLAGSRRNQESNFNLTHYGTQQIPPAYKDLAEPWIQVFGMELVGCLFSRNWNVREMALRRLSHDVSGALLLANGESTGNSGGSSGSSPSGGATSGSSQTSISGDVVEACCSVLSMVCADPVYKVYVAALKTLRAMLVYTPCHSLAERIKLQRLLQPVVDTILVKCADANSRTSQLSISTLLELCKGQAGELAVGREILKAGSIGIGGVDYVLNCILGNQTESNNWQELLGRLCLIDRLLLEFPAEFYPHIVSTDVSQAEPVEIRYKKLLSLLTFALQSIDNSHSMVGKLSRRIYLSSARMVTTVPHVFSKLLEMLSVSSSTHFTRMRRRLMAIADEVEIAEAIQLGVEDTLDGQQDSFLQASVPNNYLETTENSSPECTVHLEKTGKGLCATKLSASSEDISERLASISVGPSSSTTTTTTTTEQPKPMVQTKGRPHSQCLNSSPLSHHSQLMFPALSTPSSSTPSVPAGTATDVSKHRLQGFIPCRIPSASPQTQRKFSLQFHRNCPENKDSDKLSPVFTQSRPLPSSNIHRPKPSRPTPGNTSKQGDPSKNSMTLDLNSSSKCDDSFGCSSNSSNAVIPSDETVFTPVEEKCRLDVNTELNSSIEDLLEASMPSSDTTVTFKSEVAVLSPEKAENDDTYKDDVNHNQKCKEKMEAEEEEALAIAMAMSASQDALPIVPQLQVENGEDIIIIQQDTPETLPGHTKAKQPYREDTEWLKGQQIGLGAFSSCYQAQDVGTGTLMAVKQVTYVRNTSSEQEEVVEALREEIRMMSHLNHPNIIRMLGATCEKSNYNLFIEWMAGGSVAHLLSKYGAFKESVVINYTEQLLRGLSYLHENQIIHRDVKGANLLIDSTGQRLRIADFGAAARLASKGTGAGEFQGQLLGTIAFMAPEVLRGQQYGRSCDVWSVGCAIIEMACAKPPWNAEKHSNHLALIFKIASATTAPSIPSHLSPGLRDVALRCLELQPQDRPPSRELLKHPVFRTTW

[4] = target: T3, Serine/threonine-protein kinase Nek9 (Homo sapiens) (UniProt Q8TD19); assay: Selectivity interaction (KinomeScan (DiscoverX)) EUB0000045b NEK9
T3 sequence (whole entry): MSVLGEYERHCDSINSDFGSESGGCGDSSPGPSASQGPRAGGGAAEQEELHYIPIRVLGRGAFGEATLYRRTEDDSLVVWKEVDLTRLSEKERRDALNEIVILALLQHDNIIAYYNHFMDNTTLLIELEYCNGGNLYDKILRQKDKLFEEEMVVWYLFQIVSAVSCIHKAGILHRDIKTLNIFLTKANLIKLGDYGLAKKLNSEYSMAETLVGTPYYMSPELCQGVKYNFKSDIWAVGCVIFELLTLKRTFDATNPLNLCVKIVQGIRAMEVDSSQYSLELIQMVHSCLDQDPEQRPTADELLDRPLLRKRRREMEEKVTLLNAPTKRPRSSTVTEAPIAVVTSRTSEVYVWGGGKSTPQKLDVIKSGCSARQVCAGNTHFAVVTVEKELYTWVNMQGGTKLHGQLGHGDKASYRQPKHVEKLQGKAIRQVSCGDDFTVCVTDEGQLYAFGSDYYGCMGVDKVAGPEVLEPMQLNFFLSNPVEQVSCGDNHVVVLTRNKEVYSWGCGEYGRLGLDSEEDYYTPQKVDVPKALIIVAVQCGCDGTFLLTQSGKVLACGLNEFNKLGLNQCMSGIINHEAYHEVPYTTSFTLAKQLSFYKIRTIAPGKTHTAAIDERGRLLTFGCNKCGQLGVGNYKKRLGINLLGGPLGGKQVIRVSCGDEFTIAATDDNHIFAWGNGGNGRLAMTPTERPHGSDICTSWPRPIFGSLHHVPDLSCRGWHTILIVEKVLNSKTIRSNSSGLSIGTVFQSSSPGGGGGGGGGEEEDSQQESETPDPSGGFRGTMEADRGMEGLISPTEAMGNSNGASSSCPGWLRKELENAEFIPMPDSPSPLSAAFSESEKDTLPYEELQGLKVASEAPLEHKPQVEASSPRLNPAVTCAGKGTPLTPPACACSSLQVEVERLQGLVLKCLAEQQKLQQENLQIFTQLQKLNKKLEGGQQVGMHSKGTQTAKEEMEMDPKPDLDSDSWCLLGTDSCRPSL

[5] = target: Calcium/calmodulin-dependent protein kinase type 1G (Homo sapiens) (UniProt Q96NX5); assay: Selectivity interaction (KinomeScan (DiscoverX)) EUB0000045b CAMK1G
Calcium/calmodulin-dependent protein kinase type 1G (Homo sapiens), sequence (Q96NX5 whole entry): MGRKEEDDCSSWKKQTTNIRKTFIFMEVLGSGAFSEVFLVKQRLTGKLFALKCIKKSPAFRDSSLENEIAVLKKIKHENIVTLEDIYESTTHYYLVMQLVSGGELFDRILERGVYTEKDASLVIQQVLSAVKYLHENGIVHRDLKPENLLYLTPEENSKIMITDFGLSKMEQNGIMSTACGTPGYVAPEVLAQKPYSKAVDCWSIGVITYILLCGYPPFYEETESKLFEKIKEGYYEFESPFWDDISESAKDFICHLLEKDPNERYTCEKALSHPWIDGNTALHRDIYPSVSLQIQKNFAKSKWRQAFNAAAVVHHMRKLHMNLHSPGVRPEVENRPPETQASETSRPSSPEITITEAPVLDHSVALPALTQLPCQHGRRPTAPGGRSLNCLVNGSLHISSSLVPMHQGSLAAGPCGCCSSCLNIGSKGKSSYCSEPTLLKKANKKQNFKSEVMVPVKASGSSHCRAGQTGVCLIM

- % of inhibition [1]: 5.87%
- % of inhibition ([2]; at 0.01 µM): 15.1%
- % of inhibition ([2]; at 0.04 µM): -11.7%
- % of inhibition ([2]; at 0.2 µM): -29.6%
- % of inhibition ([2]; at 1 µM): -46.2%
- % of inhibition ([2]; at 5 µM): -40.1%
SMILES: CC[C@@H]1[C@H](F)C(=O)N[C@@H]1COc1nccc2cc(C(N)=O)c(OC)cc12 [ZIMLOVISERTIB]

SMILES: COc1cc(N(C)c2ccnc3ccc(C(F)(F)F)cc23)cc(OC)c1OC
- % binding [3]: 74%

SMILES: C=CC(=O)Nc1cc(-n2c(=O)ccc3cnc4ccc(-c5ccc(NS(C)(=O)=O)cc5)cc4c32)ccc1C
- % of control ([4]; at 1 µM): 100%
- % of control ([4]; at 10 µM): 65%
- % of control ([5]; at 1 µM): 100%
- % of control ([5]; at 10 µM): 68%

— ChEMBL document CHEMBL5465560, “Selectivity Literature for EUbOPEN Chemogenomic Library” (2024)
